Converted amounts (≈) assume the structure as drawn. Where two headings read alike, the source gives them in different places.
Tests used:
B16-F10 = assay: In vitro cytotoxicity; format: cell-based, murine; settings: Mus musculus, 72 hours, neutral red, 540 nm
[1] = test system: Staphylococcus aureus Smith; format: in vivo, mice; settings: single, im; for No. of survivor/tested: 5 days
Procedure: Mice were challenged intraperitoneally with 100 times the lethal dose of the pathogen in a 5% suspension of hog gastric mucin (American laboratory, Omaha, Nebr.). BU-3420T was administered to mice intramuscularly just before the bacterial challenge.

[2] = test system: Trichophyton mentagrophytes #4329; assay: Antifungal MIC, Sabouraud dextrose agar; format: cell-based
P388 leukemia = assay: Antitumor activity against P388 leukemia (ip); format: in vivo, mice; settings: for Body weight change on day 4 / MST (median survival time) / T/C: QD × 3, ip
Escherichia coli NIHJ = assay: Antibacterial MIC, serial agar dilution; format: cell-based; settings: aerobic, nutrient agar
P388/VCR = assay: In vitro cytotoxicity
Procedure: (§1) On the other hand, the cytotoxic activities against P388 and P388/VCR cells were determined by counting the number of viable cells.

[3] = test system: Cryptococcus neoformans IAM4514; assay: Antifungal MIC, Sabouraud dextrose agar; format: cell-based
[4] = test system: Propionibacterium acnes A21933; assay: Antibacterial MIC, serial agar dilution; format: cell-based; settings: Cutibacterium acnes, anaerobic, GAM agar
[5] = test system: Trichophyton mentagrophytes D155; assay: Antifungal MIC, Sabouraud dextrose agar; format: cell-based
[6] = test system: Protein synthesis in L1210 cells; assay: Inhibition of macromolecule synthesis in L1210 leukemia; format: cell-based; settings: Mus musculus; 3H-leucine, L1210, 15 min + 60 min, 37° C.
[7] = test system: Staphylococcus epidermidis A22152; assay: Antibacterial MIC, serial agar dilution; format: cell-based; settings: aerobic, nutrient agar, kanamycin-resistant
[8] = test system: DNA synthesis in L1210 cells; assay: Inhibition of macromolecule synthesis in L1210 leukemia; format: cell-based; settings: Mus musculus; 3H-thymidine, L1210, 15 min + 60 min, 37° C.
[9] = test system: Cryptococcus neoformans D49; assay: Antifungal MIC, Sabouraud dextrose agar; format: cell-based
[10] = test system: Enterobacter cloacae A9659; assay: Antibacterial MIC, serial agar dilution; format: cell-based; settings: aerobic, nutrient agar
[11] = test system: Staphylococcus aureus 209P; assay: Antibacterial MIC, serial agar dilution; format: cell-based; settings: aerobic, nutrient agar
Moser = assay: In vitro cytotoxicity; format: cell-based; settings: Homo sapiens; 72 hours, neutral red, 540 nm
P388 = assay: In vitro cytotoxicity; format: cell-based, murine; settings: Mus musculus, 72 hours, viable cell count
Procedure: as §1

Canidia albicans IAM4888 = assay: Antifungal MIC, Sabouraud dextrose agar; format: cell-based
HCT-116 = assay: In vitro cytotoxicity; format: cell-based; settings: Homo sapiens, 72 hours, neutral red, 540 nm
Escherichia coli Juhl = assay: Antibacterial MIC, serial agar dilution; format: cell-based; settings: aerobic, nutrient agar
Solubility = format: physicochemical
Escherichia coli A20665 = assay: Antibacterial MIC, serial agar dilution; format: cell-based; settings: aerobic, nutrient agar, kanamycin-resistant
Mucor spinosus IF05317 = assay: Antifungal MIC, Sabouraud dextrose agar; format: cell-based
Proteus mirabilis A9554 = assay: Antibacterial MIC, serial agar dilution; format: cell-based; settings: aerobic, nutrient agar
[12] = test system: aerobic and anaerobic bacteria; format: cell-based
Escherichia coli A9624 = assay: Antibacterial MIC, serial agar dilution; format: cell-based; settings: aerobic, nutrient agar, kanamycin-resistant
[13] = test system: RNA synthesis in L1210 cells; assay: Inhibition of macromolecule synthesis in L1210 leukemia; format: cell-based; settings: Mus musculus; 14C-uridine, L1210, 15 min + 60 min, 37° C.
[14] = test system: Enterococcus faecalis A9612; assay: Antibacterial MIC, serial agar dilution; format: cell-based; settings: aerobic, nutrient agar
Micrococcus luteus 1001 = assay: Antibacterial MIC, serial agar dilution; format: cell-based; settings: aerobic, nutrient agar

Q: What does the source list for `COC1=C(C(=O)O)C(C)C23OC24c2cc(O)c5c(c2NC3C#C/C=C\C#CC14)C(=O)c1c(O)ccc(O)c1C5=O` (stereo not shown) [BU-3420T]?
A: IC50 (B16-F10): 5.2 ng/mL (≈ 9.67 nM); No. of survivor/tested ([1]; 0.01 mg/kg): 0/5; No. of survivor/tested ([1]; 0.04 mg/kg): 0/5; ED50 ([1]; Staphylococcus aureus, 120 h, just before challenge, 5 days observation, read-out: PD50 (median protective dose)): 0.13 mg/kg; MIC [2]: 12500 ng/mL (≈ 23300 nM); Body weight change on day 4 (P388 leukemia; 0.5 mg/kg/day): 0.0 g; MST (median survival time) (P388 leukemia; 0.5 mg/kg/day): 13.0 days; T/C (P388 leukemia; 0.5 mg/kg/day): 130%; Body weight change on day 4 (P388 leukemia; 1.0 mg/kg/day): -0.5 g; MST (median survival time) (P388 leukemia; 1.0 mg/kg/day): 13.5 days; T/C (P388 leukemia; 1.0 mg/kg/day): 135%; maximum T/C value (P388 leukemia; P388, ip, QD × 3): 135%; MIC (Escherichia coli NIHJ): 50 ng/mL (≈ 93 nM); IC50 (P388/VCR; Mus musculus, P388/VCR, 72 h): 0.4 ng/mL (≈ 0.744 nM); cytotoxicity against VCR-sensitive versus resistant P388 cells (P388/VCR; P388 versus P388/VCR): same cytotoxicities against both VCR-sensitive and resistant P388 cells; MIC [3]: 12500 ng/mL (≈ 23300 nM); MIC [4]: 13 ng/mL (≈ 24.2 nM); MIC [5]: 12500 ng/mL (≈ 23300 nM); IC50 [6]: 1500 ng/mL; MIC [7]: 0.05 ng/mL (≈ 0.093 nM); IC50 [8]: 18 ng/mL; MIC [9]: 12500 ng/mL (≈ 23300 nM); MIC [10]: 50 ng/mL (≈ 93 nM); MIC [11]: 0.013 ng/mL (≈ 0.0242 nM); IC50 (Moser): 0.85 ng/mL (≈ 1.58 nM); IC50 (P388): 0.4 ng/mL (≈ 0.744 nM); MIC (Canidia albicans IAM4888): 12500 ng/mL (≈ 23300 nM); IC50 (HCT-116): 0.42 ng/mL (≈ 0.781 nM); MIC (Escherichia coli Juhl): 50 ng/mL (≈ 93 nM); solubility (Solubility; chloroform, ethyl acetate, methanol and ethanol): slightly soluble; solubility (Solubility; dimethyl sulfoxide, dimethylformamide and dioxane): soluble; solubility (Solubility; water and n-hexane): insoluble; MIC (Escherichia coli A20665): 50 ng/mL (≈ 93 nM); MIC (Mucor spinosus IF05317): 12500 ng/mL (≈ 23300 nM); MIC (Proteus mirabilis A9554): 13 ng/mL (≈ 24.2 nM); activity against Gram-negative organisms ([12]; Gram-negative organisms, versus Gram-positive): a little less susceptible; activity against Gram-positive aerobic bacteria ([12]; Gram-positive aerobic bacteria): intensely potent activity; activity against anaerobic Gram-positive and negative bacteria versus clindamycin ([12]; anaerobic bacteria): much more active than clindamycin; activity against certain kanamycin- and clindamycin-resistant bacteria ([12]; kanamycin- and clindamycin-resistant bacteria): susceptible to both compounds; MIC (Escherichia coli A9624): 50 ng/mL (≈ 93 nM); IC50 [13]: 9200 ng/mL; MIC [14]: 0.4 ng/mL (≈ 0.744 nM); MIC (Micrococcus luteus 1001): 0.8 ng/mL (≈ 1.49 nM)

From patent US4916065A (priority 1988, dated 1990)
